Laboratory results as given in article PMC8172861, “Structural and phylogenetic analyses of resistance to next-generation aminoglycosides conferred by AAC(2′) enzymes” (Scientific Reports, 2021).

Target: T1, AAC(2′)-Ia (Providencia stuartii, UniProt Q52424)
T1 construct: AAC(2′)-Ia, N-terminal HIS-tag removed by thrombin
Assay: crystal structure ([…] Å) and competitive inhibition assay
Assay type: biochemical

T1 sequence (Q52424 whole entry): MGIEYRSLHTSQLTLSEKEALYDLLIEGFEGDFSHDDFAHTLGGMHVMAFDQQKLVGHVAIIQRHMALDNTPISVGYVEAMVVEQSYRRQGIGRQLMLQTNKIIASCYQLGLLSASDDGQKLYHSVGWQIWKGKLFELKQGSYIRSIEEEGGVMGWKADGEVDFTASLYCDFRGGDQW

## NCC[C@H](O)C(=O)N[C@@H]1C[C@H](N)[C@@H](O[C@H]2O[C@H](CN)[C@@H](O)[C@H](O)[C@H]2O)[C@H](O)[C@H]1O[C@H]1O[C@H](CO)[C@@H](O)[C@H](N)[C@H]1O [amikacin]
  Ki: 87 ± 10 µM
